The text below walks through data of publication PMC4460250, “Systems Pharmacology Dissecting Holistic Medicine for Treatment of Complex Diseases: An Example Using Cardiocerebrovascular Diseases Treated by TCM” (Evidence-based Complementary and Alternative Medicine : eCAM, 2015).

For data set [1] the following is noted: in vivo; cited from earlier work.
For data set [2] the following is noted: in vivo.

With `Cc1cc(=O)n(-c2ccccc2)n1C` [Antipyrine], in data set [1], the “HIA(Human Intestinal Absorption)” value was 0.97. In addition, the “Class(High: HIA value ≥0.7; Low: HIA value < 0.7)” value in data set [2] is given as “High (key: High: HIA value ≥0.7; Low: HIA value < 0.7)”.

`CCCN[C@H]1CCc2nc(N)sc2C1` [Pramipexole(S)]: the “HIA(Human Intestinal Absorption)” value in data set [1] is 0.8. The “Class(High: HIA value ≥0.7; Low: HIA value < 0.7)” value in data set [2] is on record as “High (key: High: HIA value ≥0.7; Low: HIA value < 0.7)”.

Turning to `Cc1nccn1C[C@@H]1CCc2c(c3ccccc3n2C)C1=O` [Ondansetron(S)], the “HIA(Human Intestinal Absorption)” value in data set [1] is 1. In addition, the “Class(High: HIA value ≥0.7; Low: HIA value < 0.7)” value in data set [2] is given as “High (key: High: HIA value ≥0.7; Low: HIA value < 0.7)”.

For the molecule `COc1ccccc1OCCNC[C@@H](O)COc1cccc2[nH]c3ccccc3c12` [Carvedilol(R)], in data set [1], the “HIA(Human Intestinal Absorption)” value is on record as 0.8. For the same molecule, in data set [2], the “Class(High: HIA value ≥0.7; Low: HIA value < 0.7)” value is recorded as “High (key: High: HIA value ≥0.7; Low: HIA value < 0.7)”.

With `CC[C@H](C)[C@H]1O[C@]2(CC[C@@H]1C)C[C@@H]1C[C@@H](C/C=C(\C)[C@@H](O[C@H]3C[C@H](OC)[C@@H](O[C@H]4C[C@H](OC)[C@@H](O)[C@H](C)O4)[C@H](C)O3)[C@@H](C)/C=C/C=C3\CO[C@@H]4[C@H](O)C(C)=C[C@@H](C(=O)O1)[C@]34O)O2` [Ivermectin], the “HIA(Human Intestinal Absorption)” value in data set [1] is listed as 0.6. Besides, the “Class(High: HIA value ≥0.7; Low: HIA value < 0.7)” value in data set [2] is “Low (key: High: HIA value ≥0.7; Low: HIA value < 0.7)”.

As to `CN(C)CCC[C@]1(c2ccc(F)cc2)OCc2cc(C#N)ccc21` [Citalopram(R)], the “HIA(Human Intestinal Absorption)” value in data set [1] was 1. Besides, in data set [2], the “Class(High: HIA value ≥0.7; Low: HIA value < 0.7)” value is “High (key: High: HIA value ≥0.7; Low: HIA value < 0.7)”.

`O/N=C/c1cc[n+](COC[n+]2ccc(/C=N/O)cc2)cc1` [Obidoxime]: the “HIA(Human Intestinal Absorption)” value in data set [1] is listed as 0.05. In addition, the “Class(High: HIA value ≥0.7; Low: HIA value < 0.7)” value in data set [2] is recorded as “Low (key: High: HIA value ≥0.7; Low: HIA value < 0.7)”.

In the case of `CCCCC1C(=O)N(c2ccccc2)N(c2ccccc2)C1=O` [Phenylbutazone], the “HIA(Human Intestinal Absorption)” value in data set [1] is reported as 0.98. In data set [2], the “Class(High: HIA value ≥0.7; Low: HIA value < 0.7)” value is reported as “High (key: High: HIA value ≥0.7; Low: HIA value < 0.7)”.

`CC(=O)NCCCS(=O)(=O)O` [Acamprosate]: in data set [1], the “HIA(Human Intestinal Absorption)” value was 0.11. Besides, the “Class(High: HIA value ≥0.7; Low: HIA value < 0.7)” value in data set [2] was “Low (key: High: HIA value ≥0.7; Low: HIA value < 0.7)”.

Regarding `N=C(N)NC[C@@H]1COC2(CCCCC2)O1` [Guanadrel(R)], the “HIA(Human Intestinal Absorption)” value in data set [1] is recorded as 0.8. Also, the “Class(High: HIA value ≥0.7; Low: HIA value < 0.7)” value in data set [2] is given as “High (key: High: HIA value ≥0.7; Low: HIA value < 0.7)”.

As to `C#CCN(C)C(C)Cc1ccccc1` (stereo in doubt) [Selegiline(S)], the “HIA(Human Intestinal Absorption)” value in data set [1] is 1. Moreover, the “Class(High: HIA value ≥0.7; Low: HIA value < 0.7)” value in data set [2] is “High (key: High: HIA value ≥0.7; Low: HIA value < 0.7)”.

`NCC1(CC(=O)O)CCCCC1` [Gabapentin]: the “HIA(Human Intestinal Absorption)” value in data set [1] was 0.59. In addition, the “Class(High: HIA value ≥0.7; Low: HIA value < 0.7)” value in data set [2] is “Low (key: High: HIA value ≥0.7; Low: HIA value < 0.7)”.

Turning to `C[C@@H]1COc2c(N3CCN(C)CC3)c(F)cc3c(=O)c(C(=O)O)cn1c23` [Ofloxacin(R)], the “HIA(Human Intestinal Absorption)” value in data set [1] is listed as 1. Also, the “Class(High: HIA value ≥0.7; Low: HIA value < 0.7)” value in data set [2] was “High (key: High: HIA value ≥0.7; Low: HIA value < 0.7)”.

Regarding `CC(C)(C)NC[C@H](O)COc1cccc2c1CCC(=O)N2` [Carteolol(S)], the “HIA(Human Intestinal Absorption)” value in data set [1] is 0.95. The “Class(High: HIA value ≥0.7; Low: HIA value < 0.7)” value in data set [2] is “High (key: High: HIA value ≥0.7; Low: HIA value < 0.7)”.

Consider `COc1cc2nc(N3CCN(C(=O)[C@@H]4CCCO4)CC3)nc(N)c2cc1OC` [Terazosin(S)], for which, in data set [1], the “HIA(Human Intestinal Absorption)” value is on record as 0.91. In addition, the “Class(High: HIA value ≥0.7; Low: HIA value < 0.7)” value in data set [2] is recorded as “High (key: High: HIA value ≥0.7; Low: HIA value < 0.7)”.

For `CCCC(=O)Nc1ccc(OC[C@@H](O)CNC(C)C)c(C(C)=O)c1` [Acebutolol(S)], the “HIA(Human Intestinal Absorption)” value in data set [1] is 0.85. Besides, the “Class(High: HIA value ≥0.7; Low: HIA value < 0.7)” value in data set [2] was “High (key: High: HIA value ≥0.7; Low: HIA value < 0.7)”.

Take `C[C@H](C(=O)O)c1ccc(-c2ccccc2)c(F)c1` [Flurbiprofen(S)]: the “HIA(Human Intestinal Absorption)” value in data set [1] was 0.95. Besides, in data set [2], the “Class(High: HIA value ≥0.7; Low: HIA value < 0.7)” value is “High (key: High: HIA value ≥0.7; Low: HIA value < 0.7)”.

On to `CCN(CC)CCN1C(=O)CN=C(c2ccccc2F)c2cc(Cl)ccc21` [Flurazepam], for which, in data set [1], the “HIA(Human Intestinal Absorption)” value was 1. Further, the “Class(High: HIA value ≥0.7; Low: HIA value < 0.7)” value in data set [2] is recorded as “High (key: High: HIA value ≥0.7; Low: HIA value < 0.7)”.

In the case of `CN1CCN(C(=O)O[C@@H]2c3nccnc3C(=O)N2c2ccc(Cl)cn2)CC1` [Zopiclone(R)], the “HIA(Human Intestinal Absorption)” value in data set [1] is reported as 0.98. Moreover, the “Class(High: HIA value ≥0.7; Low: HIA value < 0.7)” value in data set [2] is “High (key: High: HIA value ≥0.7; Low: HIA value < 0.7)”.

Turning to `COc1ccc([C@@H](CN(C)C)C2(O)CCCCC2)cc1` [Venlafaxine(S)], in data set [1], the “HIA(Human Intestinal Absorption)” value is given as 0.95. For the same molecule, the “Class(High: HIA value ≥0.7; Low: HIA value < 0.7)” value in data set [2] is on record as “High (key: High: HIA value ≥0.7; Low: HIA value < 0.7)”.

On to `CCN[C@H](C)Cc1cccc(C(F)(F)F)c1` [Fenfluramine(R)], for which, in data set [1], the “HIA(Human Intestinal Absorption)” value is listed as 0.95. Besides, in data set [2], the “Class(High: HIA value ≥0.7; Low: HIA value < 0.7)” value is listed as “High (key: High: HIA value ≥0.7; Low: HIA value < 0.7)”.
